Patent US20010051630A1, “Use of hydroxylamine derivatives, and method and preparations for increasing the tolerance of field crops against weather stresses” (priority 1997, published 2001)
Marks after values point to notes of the source that are not given here.

Key:
Type in all cases: in vivo
Mo 17 maize inbred line = assay: Chilling tolerance of maize in a gradient chamber
Method: The experiment was performed using the Mo 17 maize inbred line. The seeds were coated with a 2% solution of the examined compound dissolved in 2 ml polyvinylalcohol before germination, where the above quantity of solution is applied for 100 seeds. The seeds were germinated for 3 days wrapped in wet filter paper, they were sown and then cultivated in gradient chamber for 6 weeks. In the gradient chamber, the temperature was maintained on a scale between 18 and 12° C., with differences of 1° C. This was followed by a one week regeneration at 23/20° C. temperature.
In the experiment, the length of the plants was measured 16, 31 and 43 days after the sowing, and at the end of the experiment the fresh weight of the plants was measured. The experiment was performed on 4 plants at each temperature and by each treatment.

Seaway bean cultivar = assay: Drought tolerance of beans, part a (5 days hardening); conditions: 7 days without water, one week regeneration
Text: Based on the experiences of our preliminary experiments, the plants were hardened before the application of the active agent by withholding the water for a few days, until the first signs of withering appeared. Then the plants were watered and the active agent was either dissolved in the water, or sprayed to the plants directly. Afterwards, the plants were subjected to different periods of drought according to the given experiment, watered again, and after a week-long regeneration period, the survival ratio was determined.
a) Seaway bean cultivar was hardened for 5 days by withholding the water. Afterwards the plantlets were watered for two days normally. During this time, a 10 mg/liter and 100 mg/liter concentration solution of the active agent was applied two times a day dissolved in water or by direct spraying. Then the water was withheld for 7 days, and after a week-long regeneration period, the survival ratio was determined.

[1] = system: maize of high chilling tolerance (HT) population; assay: CSVT, maize population of high chilling tolerance (HT)
Method: In this experiment the tolerance of maize, soybean and pepper seeds treated with the active agent against cold was tested. This test imposed temperature and oxygen deficiency stresses on the seeds and was carried out according to Barla-Szabó and Dolinka CSVT (Complex Stressing Vigour Test). For a single test, two hundred seeds were soaked for 48 hours at 25° C. and another 48 hours at 5° C in 150 ml distilled water containing the active agent in 10 mg/l concentration. Following the 96 hours of soaking, the seeds were further germinated between rolled wet paper for 96 hours at 25° C. There were 25 seeds in each roll, the rolls were placed vertically into containers and covered with a plastic bag in order to reduce evaporation. During the whole procedure the seeds were kept in darkness.
At the end of the experiment the number of normally developing and ungerminated seeds were recorded. The length of the normal seedlings was measured and the average length of the five longest seedlings was calculated. Seedlings longer than 0.33 times the average length of the five longest seedlings were considered to be of high vigour, and low vigour seedlings were shorter than this length.
In the case of a further experiment with maize of low chilling tolerance (LT) and high chilling tolerance (HT) populations [Ref: P. Landi, E. Frascaroli, A. Lovato; EUPHYTICA 64 21-29 (1992)], the following positive effects were found (Table 3.).

CC(C)(C)NCC(O)CONC(=O)c1cccc(C(F)(F)F)c1.Cl (centres unmarked) [Compound 1, N-[2-hydroxy-3-(1,1-dimethylethyl-amino)propoxy]-3-trifluoromethyl-benzamide monohydrochloride]
Length (cm) (Mo 17 maize inbred line; 12° C., 16 days): 5.0 cm
Length (cm) (Mo 17 maize inbred line; 12° C., 31 days): 7.9 cm
FW (g), fresh weight (Mo 17 maize inbred line; 12° C., 43 days): 1.2 g
Length (cm) (Mo 17 maize inbred line; 12° C., 43 days): 18.9 cm
Length (cm) (Mo 17 maize inbred line; 13° C., 16 days): 6.0 cm
Length (cm) (Mo 17 maize inbred line; 13° C., 31 days): 10.1 cm
FW (g), fresh weight (Mo 17 maize inbred line; 13° C., 43 days): 1.0 g
Length (cm) (Mo 17 maize inbred line; 13° C., 43 days): 16.0 cm
Length (cm) (Mo 17 maize inbred line; 14° C., 16 days): 7.6 cm
Length (cm) (Mo 17 maize inbred line; 14° C., 31 days): 15.4 cm
FW (g), fresh weight (Mo 17 maize inbred line; 14° C., 43 days): 2.7 g
Length (cm) (Mo 17 maize inbred line; 14° C., 43 days): 25.9 cm
Length (cm) (Mo 17 maize inbred line; 15° C., 16 days): 10.0 cm
Length (cm) (Mo 17 maize inbred line; 15° C., 31 days): 17.7 cm
FW (g), fresh weight (Mo 17 maize inbred line; 15° C., 43 days): 3.6 g
Length (cm) (Mo 17 maize inbred line; 15° C., 43 days): 28.5 cm
Length (cm) (Mo 17 maize inbred line; 16° C., 16 days): 15.2 cm
Length (cm) (Mo 17 maize inbred line; 16° C., 31 days): 24.8 cm
FW (g), fresh weight (Mo 17 maize inbred line; 16° C., 43 days): 4.5 g
Length (cm) (Mo 17 maize inbred line; 16° C., 43 days): 32.3 cm
Length (cm) (Mo 17 maize inbred line; 17° C., 16 days): 17.0 cm
Length (cm) (Mo 17 maize inbred line; 17° C., 31 days): 27.7 cm
FW (g), fresh weight (Mo 17 maize inbred line; 17° C., 43 days): 5.5 g
Length (cm) (Mo 17 maize inbred line; 17° C., 43 days): 36.5 cm
Length (cm) (Mo 17 maize inbred line; 18° C., 16 days): 13.2 cm
Length (cm) (Mo 17 maize inbred line; 18° C., 31 days): 28.4 cm
FW (g), fresh weight (Mo 17 maize inbred line; 18° C., 43 days): 6.0 g
Length (cm) (Mo 17 maize inbred line; 18° C., 43 days): 37.0 cm
survival (%), Spraying (100 mg/l) (Seaway bean cultivar): 71* %
survival (%), Watering (10 mg/l) (Seaway bean cultivar): 30* %
survival (%), Watering (100 mg/l) (Seaway bean cultivar): 41* %
Ratio of high vigour plants %, HT [1]: 98* %
